From patent US10822315B2, “5-benzylidene-4-oxazolidinones” (NORTH CAROLINA STATE UNIVERSITY, priority 2016, dated 2020)
Values after ≈ are worked out from the molar mass of the structure shown. Where two headings read alike, the source gives them in different places.

How the values were obtained:
MRSA ATCC BAA-44 [1] = experiment: Broth microdilution MIC determination; format: cell-based, Staphylococcus aureus; conditions: for MIC: Staphylococcus aureus
MRSA ATCC BAA-44 [2] = experiment: Biofilm dispersion assay (crystal violet, pre-formed biofilm); format: cell-based; conditions: Staphylococcus aureus, Table 2
MRSA ATCC BAA-44 [3] = experiment: as above; format: cell-based, Staphylococcus aureus; conditions: Staphylococcus aureus; for % dispersion of pre-formed biofilm at 5 µM: MRSA ATCC BAA 44; for IC50: MRSA ATCC BAA-44
Description: (§1) General Information. Methicillin-resistant Staphylococcus aureus (MRSA) strains were obtained from the Laboratory of Professor Christian Melander (NCSU) ATCC (33591, BAA 44, BAA 1685, BAA 1770, BAA 43 300) and colonies were grown on solid media as instructed. Mueller-Hinton broth (MHB, 211443-BD), tryptic soy broth (TSB, Remel: R455052) and D-glucose (CAS: 492-62-6) were purchased from Fisher Scientific. Tryptic soy agar (TSA, cat. #22091) and Linezolid (cat. # P70014) were purchased from Sigma-Aldrich. Bacteria for biofilm inhibition and dispersion assays were cultured overnight in TSBG (tryptic soy broth with 0.5% glucose supplement). All assays were run in duplicate and repeated at least two separate times for MIC assays and at least four separate times for biofilm inhibition and dispersion assays. All compounds were dissolved molecular biology grade DMSO as 100 mM stock solutions and further diluted to 10 and 1 mM stock solutions as needed. Optical densities were measured using a Thermo Scientific Genesys 20 spectrophotometer. Data for biofilm inhibition and dispersion assays was collected using a BioTek ELx808 Microplate Reader. All graphs were generated and analyzed using GraphPad Prism 7.
Biofilm Dispersion Assay. Studies were performed using the standard method described in J. J. Richards, T. E. Ballard and C. Melander, Org Biomol Chem, 2008, 6, 1356-1363. Briefly, dispersion assays were performed by taking an overnight culture of bacterial strain and subculturing it at an OD600 of 0.01 into the necessary growth liquid medium. The resulting bacterial suspension was aliquoted (100 μL) into the wells of a 96-well PVC microtiter plate. Plates were then wrapped in GLAD Press n' Seal followed by an incubation under stationary conditions at an ambient temperature. After 24 hours, the media was discarded from the wells and the plates were washed thoroughly with tap water. Predetermined concentrations of the test compound were then made in the same medium used to initially grow the biofilms and then aliquoted (100 μL) into the wells of the 96-well PVC microtiter plate with the established biofilms. Plates were then wrapped in GLAD Press n'Seal and incubated under stationary conditions at 37° C. After 24 hours, the media was discarded from the wells and the plates were washed thoroughly with tap water. Plates were then stained with 100 μL of 0.1% solution of crystal violet (CV) and then incubated at room temperature for 30 minutes. Plates were then washed with tap water again and the remaining stain was solubilized with 200 μL of 95% ethanol. Biofilm dispersion was quantitated by measuring the OD540 for each well by transferring 125 μL of the solubilized CV stain into a polystyrene microtiter dish for analysis. Biofilm inhibition was quantified by measuring the OD540 of each well and calculated as a percentage of the control (no compound), a negative control lane wherein no biofilm was formed served as a background and was subtracted out.
Percent dispersion was then plotted against concentration in Prism 7. Each of the four experiments were plotted separately and analyzed by a normalized nonlinear regression. The IC50 values reported represent an arithmetic mean of the four IC50 values. Biofilm data represent four separate experiments, with each experiment performed in duplicate (average of 8 data points for each concentration tested, unless otherwise noted)

MRSA ATCC BAA-44 [4] = experiment: Biofilm inhibition assay (crystal violet); format: cell-based, Staphylococcus aureus; conditions: for inhibition at 5 µM / inhibition at 40 µM / IC50: Staphylococcus aureus; for inhibition at 40 µM: Table 2; for IC50: MRSA ATCC BAA-44; for fold reduction in biofilm inhibition activity: 7 versus 4, 8 versus 1
Description: as §1
Biofilm Inhibition Assay. Studies were performed using the standard method described in S. A. Rogers and C. Melander, Angew Chem Int Ed, 2008, 47, 5229-5231. Briefly, biofilm inhibition assays were performed by taking an overnight culture of bacterial strain and subculturing it at an OD600 of 0.01 into the necessary growth liquid medium (LB for A. baumannii, LBNS for P. aeruginosa, Stainer-Scholte medium that was supplemented with 10 μL/mL of 100× nutrient complex for B. bronchiseptica and TSB w/0.3% glucose for S. aureus) for the strain. The compound being tested was then added at a predetermined concentration and then aliquoted (100 μL) into the wells of a 96-well PVC microtiter plate (wells not used for samples are filled with 100 μL of de-ionized water). Plates were then wrapped in GLAD Press n' Seal and incubated under stationary conditions at 37° C. After 24 hours, the media was discarded from the wells and the plates were washed thoroughly with tap water. Plates were then stained with 100 μL of 0.1% solution of crystal violet (CV) and then incubated at an ambient temperature for 30 minutes. Sample plates were then washed with tap water again and the remaining stain was solubilized with 200 μL of 95% ethanol. Biofilm inhibition was quantitated by measuring the OD540 for each well by transferring 125 μL of the solubilized CV stain into a polystyrene microtiter dish for analysis. Biofilm inhibition was quantified by measuring the OD540 of each well and calculated as a percentage of the control (no compound); a negative control lane wherein no biofilm was formed served as a background and was subtracted out.
Percent inhibition was then plotted against concentration in Prism 7. Each of the four experiments were plotted separately and analyzed by a normalized nonlinear regression. The IC50 values reported represent an arithmetic mean of the four IC50 values. Biofilm data represent four separate experiments, with each experiment performed in duplicate (average of 8 data points for each concentration tested, unless otherwise noted)

MRSA ATCC 33591 = experiment: Broth microdilution MIC determination; format: cell-based; conditions: Staphylococcus aureus, Table 1, read-out: Antimicrobial Activity MIC
Description: as §1
Broth microdilution protocol for minimum inhibition concentration (MIC) determination. Studies were performed using the standard method prescribed by the Clinical and Laboratory Standards Institute (CLSI) M07-A8, Vol. 29 (2), which is hereby incorporated herein by reference. Briefly, fresh Mueller-Hinton broth (MHB) ˜3 ml, was inoculated (5×10^5 CFU mL^−1) with MRSA (ATCC 33591) methicillin-resistant Staphylococcus aureus. The resulting bacterial suspension was aliquoted (1 mL) into culture tubes and test compound (10 mM DMSO stock solution) was added to reach the final concentration of the interest. Bacteria not treated with the antimicrobial compound served as the control. Rows 2-12 of a 96-well microtiter plate were filled with remaining bacterial subcultures. The samples containing test compound were aliquoted (200 μL) into the first row wells of the microtiter plate (2 wells per compound). Row 1 wells were mixed 6-8 times and 100 μL was transferred down to row 2. Row 2 wells were mixed 6-8 times, followed by a 100 μL transfer from row 2 down to row 3. The rest of the rows of the plate were serially diluted in similar fashion. The plate was covered with sealing tape for 96-well plates (ThermoFisher) and incubated under stationary conditions at 37° C. A duplicate of the plate was prepared.

red blood cells = experiment: Lysis of red blood cells; format: cell-based; conditions: 100 μM
[5] = MRSA ATCC BAA 44, Table 2, read-out: MIC
[6] = MRSA ATCC BAA-44, Table 1, read-out: Antimicrobial Activity MIC

## CCCCC(Cl)(Cl)C1NC(=O)/C(=C/c2ccc(OC)cc2)O1 (stereo not drawn) [Compound 11, (Z)-2-(1,1-di-Chloropentyl)-5-(4-methoxybenzylidene)oxazolidin-4-one]
MRSA ATCC BAA-44 [1]; [5]
  MIC: > 128 µg/mL
MRSA ATCC BAA-44 [2]
  inhibition at 40 µM: 58%
MRSA ATCC BAA-44 [3]
  % dispersion of pre-formed biofilm at 5 µM: 49%
MRSA ATCC BAA-44 [4]; 5 μM, MRSA ATCC BAA 44
  % Biofilm Inhibition (5 μM): 39%
  inhibition at 5 µM: < 50%
MRSA ATCC BAA-44 [4]; MRSA ATCC BAA 44
  inhibition at 40 µM: 52%

## CCCCC(Cl)(Cl)C1NC(=O)/C(=C/c2ccccc2)O1 (stereo not drawn) [Compound 6, (Z)-5-benzylidene-2-(1,1-dichloropentyl)oxazolidin-4-one]
MRSA ATCC BAA-44 [1]; [5]
  MIC: 64 µg/mL (≈ 204 µM)
MRSA ATCC BAA-44 [1]; [6]
  MIC: 64 µg/mL (≈ 204 µM)
MRSA ATCC 33591
  MIC: 64 µg/mL (≈ 204 µM)
MRSA ATCC BAA-44 [2]
  inhibition at 40 µM: 26%
MRSA ATCC BAA-44 [3]
  % dispersion of pre-formed biofilm at 5 µM: 14%
  IC50: 5.3 µM
MRSA ATCC BAA-44 [4]; 5 μM, MRSA ATCC BAA 44
  inhibition at 5 µM: 51%
MRSA ATCC BAA-44 [4]
  IC50: 3.2 µM

## CC(Cl)(Cl)C1NC(=O)/C(=C/c2ccc(C(F)(F)F)cc2)O1 (stereo not drawn) [Compound 4, (Z)-2-(1,1-dichloroethyl)-5-(4-(trifluoromethyl)benzylidene)oxazolidin-4-one]
MRSA ATCC BAA-44 [1]; [5]
  MIC: 32 µg/mL (≈ 94.1 µM)
MRSA ATCC BAA-44 [1]; [6]
  MIC: 32 µg/mL (≈ 94.1 µM)
MRSA ATCC 33591
  MIC: 32 µg/mL (≈ 94.1 µM)
MRSA ATCC BAA-44 [3]
  % dispersion of pre-formed biofilm at 5 µM: 50%
  IC50: 5 µM
MRSA ATCC BAA-44 [4]; 5 μM, MRSA ATCC BAA 44
  inhibition at 5 µM: 55%
MRSA ATCC BAA-44 [4]
  IC50: 3.6 µM

## C#CCC(Cl)(Cl)C1NC(=O)/C(=C/c2ccc(C(F)(F)F)cc2)O1 (stereo not drawn) [Compound 5, (Z)-2-(1,1-dichlorobut-3-yn-1-yl)-5-(4-(trifluoromethyl)benzylidene)oxazolidin-4-one]
MRSA ATCC BAA-44 [1]; [5]
  MIC: 16 µg/mL (≈ 43.9 µM)
MRSA ATCC BAA-44 [1]; [6]
  MIC: 16 µg/mL (≈ 43.9 µM)
MRSA ATCC 33591
  MIC: 16 µg/mL (≈ 43.9 µM)
MRSA ATCC BAA-44 [3]
  % dispersion of pre-formed biofilm at 5 µM: 63%
  IC50: 6 µM
MRSA ATCC BAA-44 [4]; 5 μM, MRSA ATCC BAA 44
  inhibition at 5 µM: 64%
MRSA ATCC BAA-44 [4]
  IC50: 1.9 µM

## CC(C)(C)C1NC(=O)/C(=C/c2ccc(C(F)(F)F)cc2)O1 (stereo not drawn) [Compound 7, (Z)-2-(tert-butyl)-5-(4-(trifluoromethyl)benzylidene)oxazolidin-4-one]
MRSA ATCC BAA-44 [1]; 7 compared with 4
  fold reduction in antimicrobial activity: 4 fold
MRSA ATCC BAA-44 [1]; [5]
  MIC: 128 µg/mL (≈ 428 µM)
MRSA ATCC BAA-44 [1]; [6]
  MIC: 128 µg/mL (≈ 428 µM)
MRSA ATCC 33591
  MIC: 128 µg/mL (≈ 428 µM)
MRSA ATCC BAA-44 [2]
  inhibition at 40 µM: 31%
MRSA ATCC BAA-44 [3]
  % dispersion of pre-formed biofilm at 5 µM: 5.7%
  IC50: 9.2 µM
MRSA ATCC BAA-44 [4]
  fold reduction in biofilm inhibition activity: 3 fold
  IC50: 7.3 µM
MRSA ATCC BAA-44 [4]; 5 μM, MRSA ATCC BAA 44
  inhibition at 5 µM: 31%
MRSA ATCC BAA-44 [4]; MRSA ATCC BAA 44
  inhibition at 40 µM: 51%

## CCCCCCNC(=O)C(=O)Cc1ccc(C(F)(F)F)cc1 [Compound 9, N-hexyl-2-oxo-3-(4-(trifluoromethyl)phenyl)propanamide]
MRSA ATCC BAA-44 [1]; MRSA ATCC BAA-44
  antimicrobial activity (in words): no antimicrobial activity
MRSA ATCC BAA-44 [1]; [5]
  MIC: > 128 µg/mL
MRSA ATCC BAA-44 [1]; [6]
  MIC: > 128 µg/mL
MRSA ATCC 33591
  MIC: > 128 µg/mL
MRSA ATCC BAA-44 [2]
  inhibition at 40 µM: -6.5%
MRSA ATCC BAA-44 [3]
  % dispersion of pre-formed biofilm at 5 µM: -24%
  IC50: > 20 µM
MRSA ATCC BAA-44 [4]; 5 μM, MRSA ATCC BAA 44
  inhibition at 5 µM: 24%
MRSA ATCC BAA-44 [4]
  IC50: > 20 µM
MRSA ATCC BAA-44 [4]; MRSA ATCC BAA 44
  inhibition at 40 µM: 41%
MRSA ATCC BAA-44 [4]; even at 40 μM
  biofilm activity (in words): only modest biofilm activity

## CCCCCC1NC(=O)/C(=C/c2ccc(C(F)(F)F)cc2)O1 (stereo not drawn) [Compound 8, (Z)-2-pentyl-5-(4-(trifluoromethyl)benzylidene)oxazolidin-4-one]
MRSA ATCC BAA-44 [1]; [5]
  MIC: 64 µg/mL (≈ 204 µM)
MRSA ATCC BAA-44 [1]; [6]
  MIC: 16 µg/mL (≈ 51.1 µM)
MRSA ATCC 33591
  MIC: 16 µg/mL (≈ 51.1 µM)
MRSA ATCC BAA-44 [4]
  fold reduction in biofilm inhibition activity: 5 fold
  IC50: 7.3 µM
MRSA ATCC BAA-44 [4]; 5 μM, MRSA ATCC BAA 44
  inhibition at 5 µM: 17%
MRSA ATCC BAA-44 [4]; MRSA ATCC BAA 44
  inhibition at 40 µM: 53%

## CCCCCCCCC(Cl)(Cl)C1NC(=O)/C(=C/c2ccc(C(F)(F)F)cc2)O1 (stereo not drawn) [Compound 3, (Z)-2-(1,1-dichlorononyl)-5-(4-(trifluoromethyl)benzylidene)oxazolidin-4-one]
MRSA ATCC BAA-44 [1]; MRSA ATCC BAA-44
  antimicrobial activity (in words): completely abolished
MRSA ATCC BAA-44 [1]; [5]
  MIC: > 128 µg/mL
MRSA ATCC BAA-44 [1]; [6]
  MIC: > 128 µg/mL
Red blood cells
  red blood cells lysed: 7%
MRSA ATCC 33591
  MIC: > 128 µg/mL
MRSA ATCC BAA-44 [2]
  inhibition at 40 µM: 19%
MRSA ATCC BAA-44 [3]
  % dispersion of pre-formed biofilm at 5 µM: 19%
  IC50: 6.6 µM
MRSA ATCC BAA-44 [4]; 5 μM, MRSA ATCC BAA 44
  inhibition at 5 µM: 68%
MRSA ATCC BAA-44 [4]
  IC50: 1.7 µM
MRSA ATCC BAA-44 [4]; MRSA ATCC BAA 44
  inhibition at 40 µM: 75%
MRSA ATCC BAA-44 [4]; relative to MIC
  dose dependence of biofilm inhibition (in words): dose-dependent biofilm inhibition at concentrations well below their MIC
